# Test results reported in US20040023909A1, “Process for preventing or reducing undesirable immunological effects to infectious agents in subjects” (Enzo Therapeutics, Inc, priority 1997, published 2004).
# System: U937 cells
# Assay: Delivery of labeled BSA to cells (fluorescent microscope)
# Format: cell-based
# Conditions: for Cells displaying fluorescense: overnight at 37° C.
# Procedure: U937 cells were grown to approximately 10^6/ml and centrifuged, washed in growth medium (RPMI), suspended in 3.5 ml of RPMI, and 0.8 ml was placed in each of four 35 mm wells. BSA-BF and BSA-F, each at a concentration of 20 mg/ml, were added to the four wells together with 200 ul of RPMI as follows:
# The cell suspensions were incubated overnight at 37° C. One ml of cell suspension was placed in 2.0 ml of RPMI and centrifuged at 1000 rpm for 5 minutes. The supernatants were decanted and the cells were resuspended in 200 ul of RPMI. Samples of each cell suspension were placed on a microscope slide and examined using a fluorescent microscope.
Substance,Localisation of fluorescense in cells undergoing mitosis,Cells displaying fluorescense (20 ul of 20 mg/ml),Cells displaying fluorescense (50 ul of 20 mg/ml)
BSA-BF: Bovine Serum Albumin labeled by conjugation with both biotin and fluorescein,bright fluorescense that was confined to the nuclei,Approximately 40%,Approximately 40%
BSA-F: Bovine Serum Albumin labeled with fluourescein alone [reference compound],–,< 5%,< 5%
